Our source for the IC50 values is patent US9809574B2, “Isoindoline or isoquinoline compounds, a process for their preparation and pharmaceutical compositions containing them” (LES LABORATOIRES SERVIER, priority 2013, dated 2017).

Read-outs that look alike come from different tables or passages of the source.

Assay [1] deals with Bcl-2 protein (histag-Bcl-2, UniProtKB P10415) (Homo sapiens (Human), UniProt P10415). The assay is described as follows: Inhibition of Bcl-2 by the fluorescence polarisation technique. The assay is classed as binding. From the text: For partial inhibitors, the percentage fluorescence polarisation inhibition for a given concentration of the test compound is indicated.
Chain of Bcl-2 protein (P10415 whole entry): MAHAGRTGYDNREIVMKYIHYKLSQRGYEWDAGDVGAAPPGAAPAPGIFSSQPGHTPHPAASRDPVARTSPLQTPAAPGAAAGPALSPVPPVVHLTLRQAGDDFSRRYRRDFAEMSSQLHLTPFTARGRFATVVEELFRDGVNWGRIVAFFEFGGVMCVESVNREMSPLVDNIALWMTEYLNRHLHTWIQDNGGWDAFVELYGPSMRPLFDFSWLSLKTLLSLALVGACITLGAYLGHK
On the technique in general: Polarisation of emitted light reports the rotation of a fluorescent probe.

The subject of assay [2] is RS4; 11 leukaemia cell line. In words: In vitro cytotoxicity, Microculture Tetrazolium Assay (MTT). The assay is classed as cell-based. The following applies: 11 cells exposed for 48 hours. The method, then: The cytotoxicity studies were carried out on the RS4; 11 leukaemia cell line and on H146 small Cell Lung Carcinoma cell line. The cells are distributed onto microplates and exposed to the test compounds for 48 hours. The cell viability is then quantified by a colorimetric assay, the Microculture Tetrazolium Assay (Cancer Res., 1987, 47, 939-942).

[3] abbreviates: fluorescence polarisation test, incubation for 2 hours, read-out: IC50 (nM) Bcl-2 FP.

In general, IC50 refers to the concentration that inhibits the measured activity by half.

As for `Cc1c(C(=O)N(C)c2ccc(O)cc2)cc(-c2cc3c(cc2C(=O)N2Cc4ccccc4C[C@H]2CN2CCOCC2)CN(C(=O)Nc2ccccc2)CC3)n1C` [Example 245, 6-{4-[(4-Hydroxyphenyl)(methyl)carbamoyl]-1,5-dimethyl-1H-pyrrol-2-yl}-7-[(3S)-3-(morpholin-4-ylmethyl)-1,2,3,4-tetrahydroisoquinoline-2-carbonyl]-N-phenyl-1,2,3,4-tetrahydroisoquinoline-2-carboxamide], the IC50 in assay [1] (setting [3]) worked out at 4.2 nM; in assay [2] (Homo sapiens), 92 nM.
In the same order, the values of `Cc1c(C(=O)N(C)c2ccc(O)cc2)cc(-c2cc3c(cc2C(=O)N2Cc4ccccc4C[C@H]2C)CN(C(=O)Nc2ccccc2)CC3)n1C` [Example 253, 6-{4-[(4-Hydroxyphenyl)(methyl)carbamoyl]-1,5-dimethyl-1H-pyrrol-2-yl}-7-[(3R)-3-methyl-1,2,3,4-tetrahydroisoquinoline-2-carbonyl]-N-phenyl-1,2,3,4-tetrahydroisoquinoline-2-carboxamide] are 5.2 nM and 22 nM.
On to `Cc1c(C(=O)N(C)c2ccc(O)cc2)cc(-c2cc3c(cc2C(=O)N2Cc4ccccc4C[C@H]2C)CN(C(=O)Oc2ccccc2OCCN(C)C)CC3)n1C` [Example 392, 2-[2-(Dimethylamino)ethoxy]phenyl 6-{4-[(4-hydroxyphenyl) (methyl)carbamoyl]-1,5-dimethyl-1H-pyrrol-2-yl}-7-[(3R)-3-methyl-1,2,3,4-tetrahydroisoquinoline-2-carbonyl]-1,2,3,4-tetrahydroisoquinoline-2-carboxylate], for which the half-inhibitory concentration (IC50) in assay [1] (setting [3]) was determined as 2 nM; in assay [2] (Homo sapiens) it was 14 nM.
In the case of `Cc1c(C(=O)N(C)c2ccc(O)cc2)cc(-c2cc3c(cc2C(=O)N2Cc4ccccc4C[C@H]2C)CN(C(=O)Oc2cccc(OCCN(C)C)c2)CC3)n1C` [Example 434, 3-[2-(Dimethylamino)ethoxy]phenyl 6-{4-[(4-hydroxyphenyl)(methyl)carbamoyl]-1,5-dimethyl-1H-pyrrol-2-yl}-7-[(3R)-3-methyl-1,2,3,4-tetrahydroisoquinoline-2-carbonyl]-1,2,3,4-tetrahydrisoquinoline-2-carboxylate], the half-maximal inhibitory concentration (IC50) came to 2.9 nM in assay [1] (setting [3]) and 1.6 nM in assay [2].
Take `Cc1c(C(=O)N(C)c2ccccc2)cc(-c2cc3c(cc2C(=O)N2Cc4ccccc4C[C@H]2C)CN(C(=O)Oc2cccc(N(C)CCN(C)C)c2)CC3)n1C` [Example 446, 3-{[2-(Dimethylamino)ethyl](methyl)amino}phenyl 6-{1,5-dimethyl-4-[methyl(phenyl)carbamoyl]-1H-pyrrol-2-yl}-7-[(3R)-3-methyl-1,2,3,4-tetrahydroisoquinoline-2-carbonyl]-1,2,3,4-tetrahydroisoquinoline-2-carboxylate]: the IC50 in assay [1] (setting [3]) was 4.3 nM; in assay [2] (Homo sapiens), 14 nM.
Regarding `Cc1c(C(=O)N(C)c2ccccc2)cc(-c2cc3c(cc2C(=O)N2Cc4ccccc4C[C@H]2C)CN(C(=O)Oc2cccc(OCCN(C)C)c2)CC3)n1C` [Example 448, 3-[2-(Dimethylamino)ethoxy]phenyl 6-{1,5-dimethyl-4-[methyl(phenyl)carbamoyl]-1H-pyrrol-2-yl}-7-[(3R)-3-methyl-1,2,3,4-tetrahydroisoquinoline-2-carbonyl]-1,2,3,4-tetrahydroisoquinoline-2-carboxylate], the IC50 in assay [1] (setting [3]) came out at 4 nM; in assay [2] (Homo sapiens), 8.2 nM.
Regarding `Cc1c(C(=O)N(C)c2ccc(O)cc2)cc(-c2cc3c(cc2C(=O)N2Cc4ccccc4C[C@H]2C)CN(C(=O)Oc2ccc(N(C)CCN(C)C)cc2)CC3)n1C` [Example 474, 4-{[2-(Dimethylamino)ethyl](methyl)amino}phenyl 6-{4-[(4-hydroxyphenyl)(methyl)carbamoyl]-1,5-dimethyl-1H-pyrrol-2-yl}-7-[(3R)-3-methyl-1,2,3,4-tetrahydroisoquinoline-2-carbonyl]-1,2,3,4-tetrahydroisoquinoline-2-carboxylate], the IC50 in assay [1] (setting [3]) was found to be 4.5 nM; in assay [2] (Homo sapiens), 2.6 nM.
The corresponding values for `Cc1c(C(=O)N(C)c2ccccc2)cc(-c2cc3c(cc2C(=O)N2Cc4ccccc4C[C@H]2C)CN(C(=O)Oc2ccc(N(C)CCN(C)C)cc2)CC3)n1C` [Example 488, 4-{[2-(Dimethylamino)ethyl](methyl)amino}phenyl 6-{1,5-dimethyl-4-[methyl(phenyl)carbamoyl]-1H-pyrrol-2-yl}-7-[(3R)-3-methyl-1,2,3,4-tetrahydroisoquinoline-2-carbonyl]-1,2,3,4-tetrahydroisoquinoline-2-carboxylate] are 5.3 nM and 13 nM.
For the molecule `Cc1c(C(=O)N(C)c2ccccc2)cc(-c2cc3c(cc2C(=O)N2Cc4ccccc4C[C@H]2C)CN(C(=O)Oc2ccc(NCCN(C)C)cc2)CC3)n1C` [Example 489, 4-{[2-(Dimethylamino)ethyl]amino}phenyl 6-{1,5-dimethyl-4-[methyl(phenyl)carbamoyl]-1H-pyrrol-2-yl}-7-[(3R)-3-methyl-1,2,3,4-tetrahydroisoquinoline-2-carbonyl]-1,2,3,4-tetrahydroisoquinoline-2-carboxylate], the IC50 was found to be 3.2 nM in assay [1] (setting [3]) and 68 nM in assay [2] (Homo sapiens).
Turning to `Cc1c(C(=O)N(C)c2ccc(O)cc2)cc(-c2cc3c(cc2C(=O)N2Cc4ccccc4C[C@H]2CN2CCOCC2)CN(C(=O)Oc2cccc(C#N)c2)CC3)n1C` [Example 560, 3-Cyanophenyl 6-{4-[(4-hydroxyphenyl)(methyl)carbamoyl]-1,5-dimethyl-1H-pyrrol-2-yl}-7-[(3S)-3-(morpholin-4-ylmethyl)-1,2,3,4-tetrahydroisoquinoline-2-carbonyl]-1,2,3,4-tetrahydroisoquinoline-2-carboxylate], the IC50 in assay [1] (setting [3]) came out at 8.8 nM; in assay [2] (Homo sapiens) it was 70 nM.
Take `C#Cc1ccc(OC(=O)N2CCc3cc(-c4cc(C(=O)N(C)c5ccc(O)cc5)c(C)n4C)c(C(=O)N4Cc5ccccc5C[C@H]4CN4CCOCC4)cc3C2)cc1` [Example 564, 4-Ethynylphenyl 6-{4-[(4-hydroxyphenyl)(methyl)carbamoyl]-1,5-dimethyl-1H-pyrrol-2-yl}-7-[(3S)-3-(morpholin-4-ylmethyl)-1,2,3,4-tetrahydroisoquinoline-2-carbonyl]-1,2,3,4-tetrahydroisoquinoline-2-carboxylate]: the figures for the IC50 in assay [1] (setting [3]) and in assay [2] (Homo sapiens) were 4.5 nM and 3.3 nM, respectively.
In the same order, the values of `Cc1c(C(=O)N(C)c2ccc(O)cc2)cc(-c2cc3c(cc2C(=O)N2Cc4ccccc4C[C@H]2CN2CCOCC2)CN(C(=O)Oc2ccc(Cl)c(Cl)c2)CC3)n1C` [Example 573, 3,4-Dichlorophenyl 6-{4-[(4-hydroxyphenyl)(methyl)carbamoyl]-1,5-dimethyl-1H-pyrrol-2-yl}-7-[(3S)-3-(morpholin-4-ylmethyl)-1,2,3,4-tetrahydroisoquinoline-2-carbonyl]-1,2,3,4-tetrahydroisoquinoline-2-carboxylate] are 18 nM and 43 nM.
In the same order, the values of `Cc1c(C(=O)N(C)c2ccc(O)cc2)cc(-c2cc3c(cc2C(=O)N2Cc4ccccc4C[C@H]2CN2CCOCC2)CN(C(=O)Oc2ccc4ccccc4c2)CC3)n1C` [Example 574, Naphthalen-2-yl 6-{4-[(4-hydroxyphenyl)(methyl)carbamoyl]-1,5-dimethyl-1H-pyrrol-2-yl}-7-[(3S)-3-(morpholin-4-ylmethyl)-1,2,3,4-tetrahydroisoquinoline-2-carbonyl]-1,2,3,4-tetrahydroisoquinoline-2-carboxylate] are 8.8 nM and 11 nM.
Turning to `Cc1c(C(=O)N(C)c2ccc(O)cc2)cc(-c2cc3c(cc2C(=O)N2Cc4ccccc4C[C@H]2CN2CCOCC2)CN(C(=O)Oc2ccc4cc[nH]c4c2)CC3)n1C` [Example 575, 1H-Indol-6-yl 6-{4-[(4-hydroxyphenyl)(methyl)carbamoyl]-1,5-dimethyl-1H-pyrrol-2-yl}-7-[(3S)-3-(morpholin-4-ylmethyl)-1,2,3,4-tetrahydroisoquinoline-2-carbonyl]-1,2,3,4-tetrahydroisoquinoline-2-carboxylate], the IC50 in assay [1] (setting [3]) was 6.3 nM; in assay [2] (Homo sapiens), 12 nM.
For `Cc1c(C(=O)N(C)c2ccc(O)cc2)cc(-c2cc3c(cc2C(=O)N2Cc4ccccc4C[C@H]2CN2CCOCC2)CN(C(=O)Oc2ccc4[nH]ccc4c2)CC3)n1C` [Example 577, 1H-Indol-5-yl 6-{4-[(4-hydroxyphenyl)(methyl)carbamoyl]-1,5-dimethyl-1H-pyrrol-2-yl}-7-[(3S)-3-(morpholin-4-ylmethyl)-1,2,3,4-tetrahydroisoquinoline-2-carbonyl]-1,2,3,4-tetrahydroisoquinoline-2-carboxylate], the IC50 in assay [1] (setting [3]) worked out at 5.9 nM; in assay [2] (Homo sapiens), 4.7 nM.
Turning to `Cc1c(C(=O)N(C)c2ccc(O)cc2)cc(-c2cc3c(cc2C(=O)N2Cc4ccccc4C[C@H]2CN2CCOCC2)CN(C(=O)Oc2cnc4[nH]ccc4c2)CC3)n1C` [Example 579, 1H-Pyrrolo[2,3-b]pyridin-5-yl 6-{4-[(4-hydroxyphenyl)(methyl)carbamoyl]-1,5-dimethyl-1H-pyrrol-2-yl}-7-[(3S)-3-(morpholin-4-ylmethyl)-1,2,3,4-tetrahydroisoquinoline-2-carbonyl]-1,2,3,4-tetrahydroisoquinoline-2-carboxylate], the results for the IC50 in assay [1] and in assay [2] (Homo sapiens) were 4.4 nM and 17 nM, respectively.
With `Cc1ccc(OC(=O)N2CCc3cc(-c4cc(C(=O)N(C)c5ccccc5)c(C)n4C)c(C(=O)N4Cc5ccccc5C[C@H]4CN4CCOCC4)cc3C2)cc1` [Example 591, 4-Methylphenyl 6-{1,5-dimethyl-4-[methyl(phenyl)carbamoyl]-1H-pyrrol-2-yl}-7-[(3S)-3-(morpholin-4-ylmethyl)-1,2,3,4-tetrahydroisoquinoline-2-carbonyl]-1,2,3,4-tetrahydroisoquinoline-2-carboxylate], the figures for the IC50 in assay [1] (setting [3]) and in assay [2] (Homo sapiens) were 2.5 nM and 7 nM, respectively.
